{"source": "paper PMC3826796", "about": "(European journal of cancer (Oxford, England : 1990), 2012)", "key": {"Phospho-AKT (T308)": {"test_system": "Phospho-AKT (T308)", "conditions": "CLL cells from a subset of patients, post-dose; cited from earlier work"}, "advanced malignancies": {"test_system": "advanced malignancies", "conditions": "cited from earlier work"}, "[1]": {"conditions": "cited from earlier work"}, "[2]": {"conditions": "background statement, ref not given; cited from earlier work"}, "[3]": {"assay": "Plasma pharmacokinetics of SF1126 and hydrolysis products SF1101 and SF1174", "type": "in vivo, human", "conditions": "human, in vivo"}}, "note": "Read-outs that look alike come from different tables or passages of the source."}
{"smiles": "CC[C@H](Nc1ncnc2[nH]cnc12)c1nc2cccc(F)c2c(=O)n1-c1ccccc1", "note": "[CAL-101]", "values": [{"measurement": "Reduction of Phospho-AKT (T308)", "setting": "Phospho-AKT (T308)", "value": "> 90", "unit": "%"}, {"measurement": "Patients with durable responses of >6 months", "setting": "advanced malignancies; refractory non-Hodgkin's lymphoma and chronic lymphocytic leukaemia", "value": 5}]}
{"smiles": "C=CCN(/C=C1/C(=O)O[C@H](COC)[C@@]2(C)C1=C(O)C(=O)C1=C2[C@H](OC(C)=O)C[C@]2(C)C(=O)CC[C@@H]12)CC=C", "note": "[PX-866]", "values": [{"measurement": "Grade 3 adverse event", "setting": "[1]", "value": "1 reversible grade 3 transminitis"}]}
{"smiles": "O=c1cc(N2CCOCC2)oc2c(-c3ccccc3)cccc12", "note": "[SF1101, reference compound]", "values": [{"measurement": "half-life", "setting": "[2]", "value": "short half-life"}, {"measurement": "Concentrations reached (Cmax versus dose)", "setting": "[3]", "value": "20 to 30", "unit": "µM"}, {"measurement": "half-life", "setting": "[3]; iv", "value": "1 to 2.4", "unit": "h"}]}
{"smiles": "CCn1c(=O)c(-c2cc[nH]n2)cc2c(C)nc(N)nc21", "note": "[XL765]", "values": [{"measurement": "Patients on study for ≥16 weeks", "setting": "advanced malignancies; Phase I, oral", "value": 11}, {"measurement": "Patients on study for ≥24 weeks", "setting": "advanced malignancies; Phase I, oral", "value": 7}]}
{"smiles": "COc1ccc(Cl)c(Nc2nc3ccccc3nc2NS(=O)(=O)c2cccc(NC(=O)C(C)(C)N)c2)c1", "note": "[XL147]", "values": [{"measurement": "Partial response", "setting": "advanced malignancies", "value": "PR in a NSCLC patient with a confirmed PI3K3CA mutation"}, {"measurement": "Major DLT", "setting": "[1]", "value": "skin rash"}]}
{"smiles": "CS(=O)(=O)N1CCN(Cc2cc3nc(-c4cccc5[nH]ncc45)nc(N4CCOCC4)c3s2)CC1", "note": "[GDC-0941]", "values": [{"measurement": "Patients with anti-tumour activity", "setting": "advanced malignancies; phase I, relapsed/refractory solid tumours", "value": "3 of 19"}]}
{"smiles": "COc1ccc(-c2ccc3ncc4c(c3c2)n(-c2ccc(N3CCNCC3)c(C(F)(F)F)c2)c(=O)n4C)cn1", "note": "[BGT226]", "values": [{"measurement": "AE profile", "setting": "[1]; phase I, advanced solid tumours", "value": "nausea, vomiting and diarrhoea"}]}
{"smiles": "Nc1cc(C(F)(F)F)c(-c2cc(N3CCOCC3)nc(N3CCOCC3)n2)cn1", "note": "[BKM120]", "values": [{"measurement": "Patients on study for P8 months", "setting": "advanced malignancies; phase I", "value": 7}, {"measurement": "PR (number of patients)", "setting": "advanced malignancies; phase I, triple negative breast cancer (KRAS mutated) patient", "value": 1}, {"measurement": "AEs", "setting": "[1]; phase I", "value": "grade 3 rash, abdominal pain and mood alterations"}, {"measurement": "Events observed at DLT", "setting": "[1]; phase I", "value": "Two grade 4 hyperglycaemic events"}]}
